Counter-ions that a name gives are not always drawn.
Experiments:
[1] = system: U2OS cells (osteosarcoma); assay: SVV mediated killing of drug-pretreated U2OS cells; type: cell-based; conditions: U2OS cells pretreated for 24 hours with compound, FIG. 3
Procedure: U2OS cells (osteosarcoma) were pretreated for 24 hours in pharmaceutical compounds to disrupt innate antiviral responses to allow increased viral mediated killing.

[2] = system: HCT-116 cells (Colorectal cancer cells); assay: SVV mediated killing of drug-pretreated HCT-116 cells; type: cell-based, human; conditions: HCT-116 cells pretreated for 24 hours with compound, FIG. 4
Procedure: HCT-116 cells (Colorectal cancer cells) were pretreated for 24 hours in pharmaceutical compounds to disrupt innate antiviral responses to allow increased viral mediated killing.

[3] = system: HTB-126 cells (triple negative breast cancer, TNBC); assay: Seneca Valley Virus (SVV) mediated killing of drug-pretreated HTB-126 cells; type: cell-based
Text: Standard deviations of replicates are presented as error bars (VP/cell with 1 PFU or TCID50 unit per 100 VPs).
(§1) In certain instances, infection with Seneca Valley Virus can be toxic to triple negative breast cancer cell lines. In these cases, it is necessary to reduce innate antiviral responses through the use of certain approved pharmaceutical compounds (see FIG. 1, FIG. 2 and FIG. 5).

[4] = system: triple negative breast cancer cells (BT-549); assay: SVV infection, replication and killing of drug-treated BT-549 cells; type: cell-based; conditions: FIG. 2
Text: as §1

Compound | Seneca Valley Virus mediated cell killing [1] | Seneca Valley Virus mediated cell killing [2] | Seneca Valley Virus mediated cell killing ([2]; listed as dimethyl fumarate) | enhancement of SVV replication and cell death ([3]; FIG. 5, TNBC cell lines, 1PFU/cell of SVV and 0.8 uM of Tofacintinib) | susceptibility to virus mediated killing by SVV ([3]; HTB-126 cells, FIG. 1 (pretreated 24 hours in 12.5 micromolar tofacitinib, then 50 VP of SVV/cell) and FIG. 5) | susceptibility to virus mediated killing by SVV [4] | Seneca Valley Virus mediated cell killing ([1]; listed as tofacitinib) | Seneca Valley Virus mediated cell killing ([2]; listed as tofacitnib) | Seneca Valley Virus mediated cell killing ([2]; listed as vorinostat)
COC(=O)/C=C/C(=O)OC [Dimethyl fumarate, dimethyl fumarate] | increased Seneca Valley Virus mediated cell killing | mainly caused by MAC inhibitors (Panobinostat or Vorinostat) instead of the JAK inhibitors | smaller effect | – | – | – | – | – | –
C[C@@H]1CCN(C(=O)CC#N)C[C@@H]1N(C)c1ncnc2[nH]ccc12 [Tofacitinib] | augmented SVV mediated cell killing | mainly caused by MAC inhibitors (Panobinostat or Vorinostat) instead of the JAK inhibitors | – | substantial enhancement of SVV replication in TNBC cell lines and cell death | modified and favored the susceptibility to virus mediated killing by SVV | modified and favored the susceptibility to virus mediated killing by SVV | increased Seneca Valley Virus mediated cell killing | smaller effect | –
O=C(CCCCCCC(=O)Nc1ccccc1)NO [Vorinostat] | – | increase in cell killing was mainly caused by MAC inhibitors | – | – | – | modified and favored the susceptibility to virus mediated killing by SVV | – | – | increased Seneca Valley Virus mediated cell killing

Reference: patent publication US20220202884A1 (SENECA THERAPEUTICS, INC., priority 2019, published 2022)
